PubChem BioAssay AID1259407 (Chemical Carcinogenesis Research Information System (CCRIS), 2018)
Activity calls are given as the source filed them. No rule for the calls is given here.

Tested on: CCRIS mutagenicity, Ames/micronucleus/aberration tests
Experiment: CCRIS mutagenicity studies
[1] = Test System: AMES SALMONELLA TYPHIMURIUM, Strain/Indicator: TA98, Metabolic Activation: NONE, Method: STANDARD PLATE
[2] = Test System: AMES SALMONELLA TYPHIMURIUM, Strain/Indicator: TA100, Metabolic Activation: NONE, Method: STANDARD PLATE
[3] = Test System: AMES SALMONELLA TYPHIMURIUM, Strain/Indicator: TA1535, Metabolic Activation: NONE, Method: STANDARD PLATE
[4] = Test System: AMES SALMONELLA TYPHIMURIUM, Strain/Indicator: TA1537, Metabolic Activation: NONE, Method: STANDARD PLATE
[5] = Test System: AMES SALMONELLA TYPHIMURIUM, Strain/Indicator: TA1538, Metabolic Activation: NONE, Method: STANDARD PLATE

O=C1C=CC(=O)N1c1ccc(Cc2ccc(N3C(=O)C=CC3=O)cc2)cc1
mutagenic call (Test System: AMES SALMONELLA TYPHIMURIUM, Strain/Indicator: TA98, Metabolic Activation: HAMSTER, LIVER, S-9, AROCLOR 1254 (10%), Method: STANDARD PLATE): inactive; negative
mutagenic call [1]: inactive; negative
mutagenic call (Test System: AMES SALMONELLA TYPHIMURIUM, Strain/Indicator: TA98, Metabolic Activation: RAT, LIVER, S-9, AROCLOR 1254 (10%), Method: STANDARD PLATE): inactive; negative
mutagenic call (Test System: AMES SALMONELLA TYPHIMURIUM, Strain/Indicator: TA100, Metabolic Activation: HAMSTER, LIVER, S-9, AROCLOR 1254 (10%), Method: STANDARD PLATE): inactive; negative
mutagenic call [2]: inactive; negative
mutagenic call (Test System: AMES SALMONELLA TYPHIMURIUM, Strain/Indicator: TA100, Metabolic Activation: RAT, LIVER, S-9, AROCLOR 1254 (10%), Method: STANDARD PLATE): inactive; negative
mutagenic call (Test System: AMES SALMONELLA TYPHIMURIUM, Strain/Indicator: TA1535, Metabolic Activation: HAMSTER, LIVER, S-9, AROCLOR 1254 (10%), Method: STANDARD PLATE): inactive; negative
mutagenic call [3]: inactive; negative
mutagenic call (Test System: AMES SALMONELLA TYPHIMURIUM, Strain/Indicator: TA1535, Metabolic Activation: RAT, LIVER, S-9, AROCLOR 1254 (10%), Method: STANDARD PLATE): inactive; negative
mutagenic call (Test System: AMES SALMONELLA TYPHIMURIUM, Strain/Indicator: TA1537, Metabolic Activation: HAMSTER, LIVER, S-9, AROCLOR 1254 (10%), Method: STANDARD PLATE): inactive; negative
mutagenic call [4]: inactive; negative
mutagenic call (Test System: AMES SALMONELLA TYPHIMURIUM, Strain/Indicator: TA1537, Metabolic Activation: RAT, LIVER, S-9, AROCLOR 1254 (10%), Method: STANDARD PLATE): inactive; negative
mutagenic call (Test System: AMES SALMONELLA TYPHIMURIUM, Strain/Indicator: TA1538, Metabolic Activation: HAMSTER, LIVER, S-9, AROCLOR 1254 (10%), Method: STANDARD PLATE): inactive; negative
mutagenic call [5]: inactive; negative
mutagenic call (Test System: AMES SALMONELLA TYPHIMURIUM, Strain/Indicator: TA1538, Metabolic Activation: RAT, LIVER, S-9, AROCLOR 1254 (10%), Method: STANDARD PLATE): inactive; negative
mutagenic call (Test System: MOUSE LYMPHOMA, Strain/Indicator: L5178Y (TK+/TK-), Metabolic Activation: NONE, Method: SUSPENSION/PLATE): inactive; negative. reevaluation of results: negative
mutagenic call (Test System: MOUSE LYMPHOMA, Strain/Indicator: L5178Y (TK+/TK-), Metabolic Activation: RAT, LIVER, S-9, AROCLOR 1254, Method: SUSPENSION/PLATE): active; positive. reevaluation of results: equivocal

O=c1c2ccccc2[nH]c2occc12
mutagenic call [1]: inactive; negative
mutagenic call (Test System: AMES SALMONELLA TYPHIMURIUM, Strain/Indicator: TA98, Metabolic Activation: RAT LIVER S-9, PHENOBARTITAL, Method: STANDARD PLATE): inactive; negative

N[C@@H](CCCCN/C=C/C=O)C(=O)O
mutagenic call (Test System: AMES SALMONELLA TYPHIMURIUM, Strain/Indicator: HISD3052, Metabolic Activation: NONE, Method: STANDARD PLATE): active; positive

CN(Cc1ccc(Cl)cc1)N=O
mutagenic call (Test System: AMES SALMONELLA TYPHIMURIUM, Strain/Indicator: TA1535, Metabolic Activation: HAMSTER, LIVER, S-9, AROCLOR 1254, Method: STANDARD PLATE): active; positive
mutagenic call [3]: inactive; negative

ONc1ccc(Cl)c(Cl)c1
mutagenic call (Test System: AMES SALMONELLA TYPHIMURIUM, Strain/Indicator: TA97, Metabolic Activation: NONE, Method: STANDARD PLATE): inactive; negative
mutagenic call [1]: inactive; negative
mutagenic call [2]: inactive; negative
mutagenic call (Test System: AMES SALMONELLA TYPHIMURIUM, Strain/Indicator: TA104, Metabolic Activation: NONE, Method: STANDARD PLATE): inactive; negative
mutagenic call (Test System: CHINESE HAMSTER OVARY, Strain/Indicator: CHO-K1-BH4 (HGPRT), Metabolic Activation: NONE): inactive; negative

C[C@]12CCC(=O)C=C1[C@@H]1C[C@@H]1[C@H]1[C@@H]3[C@@H]4C[C@@H]4[C@@]4(CCC(=O)O4)[C@@]3(C)CC[C@@H]12
mutagenic call (End Point: IN VITRO CHROMOSOMAL ABERRATIONS, Test System: HUMAN PERIPHERAL LYMPHOCYTES, Metabolic Activation: NONE): inactive; negative
mutagenic call (End Point: IN VITRO CHROMOSOMAL ABERRATIONS, Test System: HUMAN PERIPHERAL LYMPHOCYTES, Metabolic Activation: RAT, LIVER, S-9, AROCLOR 1254): inactive; negative
mutagenic call (End Point: IN VIVO MICRONUCLEUS, Test System: BONE MARROW POLYCHROMATIC ERYTHROCYTES, Species: MOUSE, Strain/Sex: NMRI/MALE, FEMALE, Route: INTRAGASTRIC): inactive; negative
mutagenic call (Test System: AMES SALMONELLA TYPHIMURIUM, Strain/Indicator: TA98, Metabolic Activation: NONE, Method: PREINCUBATION): inactive; negative
mutagenic call [1]: inactive; negative
mutagenic call (Test System: AMES SALMONELLA TYPHIMURIUM, Strain/Indicator: TA98, Metabolic Activation: RAT, LIVER, S-9, AROCLOR 1254, Method: PREINCUBATION): inactive; negative
mutagenic call (Test System: AMES SALMONELLA TYPHIMURIUM, Strain/Indicator: TA98, Metabolic Activation: RAT, LIVER, S-9, AROCLOR 1254, Method: STANDARD PLATE): inactive; negative
mutagenic call (Test System: AMES SALMONELLA TYPHIMURIUM, Strain/Indicator: TA100, Metabolic Activation: NONE, Method: PREINCUBATION): inactive; negative
mutagenic call [2]: inactive; negative
mutagenic call (Test System: AMES SALMONELLA TYPHIMURIUM, Strain/Indicator: TA100, Metabolic Activation: RAT, LIVER, S-9, AROCLOR 1254, Method: PREINCUBATION): inactive; negative
mutagenic call (Test System: AMES SALMONELLA TYPHIMURIUM, Strain/Indicator: TA100, Metabolic Activation: RAT, LIVER, S-9, AROCLOR 1254, Method: STANDARD PLATE): inactive; negative
mutagenic call (Test System: AMES SALMONELLA TYPHIMURIUM, Strain/Indicator: TA1535, Metabolic Activation: NONE, Method: PREINCUBATION): inactive; negative
mutagenic call [3]: inactive; negative
mutagenic call (Test System: AMES SALMONELLA TYPHIMURIUM, Strain/Indicator: TA1535, Metabolic Activation: RAT, LIVER, S-9, AROCLOR 1254, Method: PREINCUBATION): inactive; negative
mutagenic call (Test System: AMES SALMONELLA TYPHIMURIUM, Strain/Indicator: TA1535, Metabolic Activation: RAT, LIVER, S-9, AROCLOR 1254, Method: STANDARD PLATE): inactive; negative
mutagenic call (Test System: AMES SALMONELLA TYPHIMURIUM, Strain/Indicator: TA1537, Metabolic Activation: NONE, Method: PREINCUBATION): inactive; negative
mutagenic call [4]: inactive; negative
mutagenic call (Test System: AMES SALMONELLA TYPHIMURIUM, Strain/Indicator: TA1537, Metabolic Activation: RAT, LIVER, S-9, AROCLOR 1254, Method: PREINCUBATION): inactive; negative
mutagenic call (Test System: AMES SALMONELLA TYPHIMURIUM, Strain/Indicator: TA1537, Metabolic Activation: RAT, LIVER, S-9, AROCLOR 1254, Method: STANDARD PLATE): inactive; negative
mutagenic call (Test System: AMES SALMONELLA TYPHIMURIUM, Strain/Indicator: TA1538, Metabolic Activation: NONE, Method: PREINCUBATION): inactive; negative
mutagenic call [5]: inactive; negative
mutagenic call (Test System: AMES SALMONELLA TYPHIMURIUM, Strain/Indicator: TA1538, Metabolic Activation: RAT, LIVER, S-9, AROCLOR 1254, Method: PREINCUBATION): inactive; negative
mutagenic call (Test System: AMES SALMONELLA TYPHIMURIUM, Strain/Indicator: TA1538, Metabolic Activation: RAT, LIVER, S-9, AROCLOR 1254, Method: STANDARD PLATE): inactive; negative
mutagenic call (Test System: CHINESE HAMSTER V-79, Strain/Indicator: V-79 (HGPRT)/6-THIOGUANINE, Metabolic Activation: NONE): inactive; negative
mutagenic call (Test System: CHINESE HAMSTER V-79, Strain/Indicator: V-79 (HGPRT)/6-THIOGUANINE, Metabolic Activation: RAT, LIVER, S-9, AROCLOR 1254): inactive; negative
